Assay results reported in publication PMC11535068, “Design, in silico studies and biological evaluation of novel chalcones tethered triazolo[3,4-a]isoquinoline as EGFR inhibitors targeting resistance in non-small cell lung cancer” (Scientific Reports, 2024).

Tests used:
A549 = experiment: MTT antiproliferative assay; details: Homo sapiens, A549, 24 h, read-out: IC50 A549
Description: (§4) Cell line cells were purchased from the American Type Culture Collection (ATCC, Manassas, VA) and were cultured according to the supplier’s instructions. […] The media was changed every 48 h, and the cells were split when 80–90% confluence was reached. Cell viability was evaluated by MTT assay.

WI-38 = experiment: MTT assay on normal lung cell line; details: Homo sapiens, WI-38, 24 h, read-out: IC50 WI-38
Description: as §4

total EGFR = biological target: T1, total EGFR (Homo sapiens, UniProt P00533); experiment: EGFR inhibition assay on A549 cells (cloud clone SEA757Hu kit); type: cell-based; details: for IC50: total EGFR, A549 cells; for Fold more efficient in inhibiting EGFR than lapatinib: total EGFR IC50 ratio to Lapatinib
T1 construct: endogenous in cells; host or cells: A549
Description: (§1) EGFR inhibition assay was performed on A549 cancer cells using cloud clone product SEA757Hu 96 Ki, according to manufacturer’s instructions protocol. The homogeneous time-resolved fluorescence assay method was used to assess the inhibitory activity of 3e and 3f against EGFR^WT, EGFR^T790M and EGFR^L858R. The EGFR proteins (EGFR^WT, EGFR^T790M and EGFR^L858R) were obtained from Signalchem (BC V6V 2J2, Canada). ATP and other chemicals were obtained from Sigma. […] After 30 min, the reaction was stopped by adding detection reagents containing EDTA.

MCF-7 = experiment: MTT antiproliferative assay; details: Homo sapiens, MCF7, 24 h, read-out: IC50 MCF-7
Description: as §4

HT-29 = experiment: MTT antiproliferative assay; details: Homo sapiens, HT-29, 24 h, read-out: IC50 HT-29
Description: as §4

PC3 = experiment: MTT antiproliferative assay; details: Homo sapiens, PC-3, 24 h, read-out: IC50 PC3
Description: as §4

HCT-116 = experiment: MTT antiproliferative assay; details: Homo sapiens, HCT-116, 24 h, read-out: IC50 HCT-116
Description: as §4

A549 lung cancer cells [1] = experiment: Annexin V-FITC/PI flow cytometric apoptosis analysis; type: cell-based, human; details: A549, 24 h, 3e 2.3 µM, 3f 1.15 µM (IC50); for Apoptosis Late (%): vehicle 0.21%; for Apoptosis Early (%): vehicle 0.49%; for Apoptosis Total (%): vehicle 0.70%; for Necrosis (%): vehicle 1.58%
Description: (§2) Quantitation of DNA content was evaluated using the Annexin V-FITC Apoptosis Detection kit (BioVision, CA, USA). Dual staining for Annexin-V and PI allows the discrimination between live cells, necrotic cells, and cells in different phases of apoptosis. […] Then, cells were collected and washed with 1X phosphate-buffered saline. The cells were stained in the dark with annexin V-FITC and propidium iodide in a binding buffer and analyzed using the flow cytometer. The cell cycle profiles were analysed using MultiCycle software (Phoenix Flow Systems, San Diego, CA)[60].

CDK4 = experiment: RT-qPCR gene expression in A549 cells; type: cell-based, human; details: A549, 24 h, vs vehicle cells, beta-actin housekeeping gene
Description: (§3) The real-time polymerase chain reaction (RT-qPCR) technique was used to evaluate the gene expression. A panel of eight genes (P53, BAX, Caspase-3, Caspase-8, Caspase-9, MMP1, CDK4, and Bcl2) was chosen to estimate the compounds’ ability to induce apoptosis. A549 cancer cells were treated with 3e and 3f compounds for 24 h before total RNA extraction. While untreated A549 cancer cells were utilized as a negative control. One-step RT-qPCR was performed using the iScript™ One-Step RT-PCR kit with SYBR®. The primer pairs sequences for each gene used are mentioned in Table 7. Control reactions were formed […] or without the reverse transcriptase enzyme.

Caspase 9 = experiment: RT-qPCR gene expression in A549 cells; type: cell-based, human; details: A549, 24 h, vs vehicle cells, beta-actin housekeeping gene
Description: as §3

Bax = experiment: RT-qPCR gene expression in A549 cells; type: cell-based, human; details: A549, 24 h, vs vehicle cells
Description: as §3

MMP1 = experiment: RT-qPCR gene expression in A549 cells; type: cell-based, human; details: A549, 24 h, vs vehicle cells, beta-actin housekeeping gene
Description: as §3

Caspase 3 = experiment: RT-qPCR gene expression in A549 cells; type: cell-based, human; details: A549, 24 h, vs vehicle cells, beta-actin housekeeping gene
Description: as §3

Caspase 8 = experiment: RT-qPCR gene expression in A549 cells; type: cell-based, human; details: A549, 24 h, vs vehicle cells, beta-actin housekeeping gene
Description: as §3

P53 = experiment: RT-qPCR gene expression in A549 cells; type: cell-based, human; details: A549, 24 h, vs vehicle cells
Description: as §3

Bcl2 = experiment: RT-qPCR gene expression in A549 cells; type: cell-based, human; details: A549, 24 h, vs vehicle cells, beta-actin housekeeping gene
Description: as §3

EGFR^T790M = biological target: T2, EGFR^T790M (Homo sapiens, UniProt P00533, T790M); experiment: Homogeneous time-resolved fluorescence EGFR-TK assay; type: biochemical; details: selectivity index
T2 construct: purchased Signalchem
Description: as §1

EGFR^L858R = biological target: T3, EGFR^L858R (Homo sapiens, UniProt P00533, L858R); experiment: as above; type: biochemical; details: selectivity index
T3 construct: purchased Signalchem
Description: as §1

A549 lung cancer cells [2] = experiment: Cell cycle analysis (DNA content, flow cytometry); type: cell-based, human; details: A549, 24 h, at IC50; for DNA content Pre-G1%: vehicle 2.28%; for DNA content G2/M%: vehicle 8.99%; for DNA content S%: vehicle 44.26%; for DNA content G0–G1%: vehicle 46.75%
Description: as §2

Compound	IC50 (A549) [µM]	IC50 (WI-38) [µM]	IC50 (total EGFR) [µM]	IC50 (MCF-7) [µM]	IC50 (HT-29) [µM]	melting point [°C]	IC50 (PC3) [µM]	IC50 (HCT-116) [µM]	also measured
COc1cc2c(cc1OC)C1N(CC2)C(C(=O)C=Cc2cn(-c3ccccc3)nc2-c2ccccc2)=NN1c1ccccc1 (centres unmarked) [Compound 3a, 1-(8,9-Dimethoxy-1-phenyl-1,5,6,10b-tetrahydro-[1,2,4]triazolo[3,4-a]isoquinolin-3-yl)-3-(1,3-diphenyl-1H-pyrazol-4-yl)prop-2-en-1-one]	1.98 ± 0.5	890.44 ± 0.13	1.62 ± 0.23	8.07 ± 0.1	16.2 ± 0.57	180 to 182	3.14 ± 1.76	8.15 ± 0.54	–
COc1cc2c(cc1OC)C1N(CC2)C(C(=O)C=Cc2cn(-c3ccccc3)nc2-c2ccccc2)=NN1c1ccc(C)cc1 (centres unmarked) [Compound 3b, 1-(8,9-Dimethoxy-1-(p-tolyl)-1,5,6,10b-tetrahydro-[1,2,4]triazolo[3,4-a]isoquinolin-3-yl)-3-(1,3-diphenyl-1H-pyrazol-4-yl)prop-2-en-1-one]	2.45 ± 0.68	669.88 ± 0.26	1.89 ± 0.37	10 ± 0.23	5.05 ± 0.42	184 to 186	6.61 ± 1.63	9.41 ± 0.47	–
COc1ccc(N2N=C(C(=O)C=Cc3cn(-c4ccccc4)nc3-c3ccccc3)N3CCc4cc(OC)c(OC)cc4C32)cc1 (centres unmarked) [Compound 3c, 1-(8,9-Dimethoxy-1-(4-methoxyphenyl)-1,5,6,10b-tetrahydro-[1,2,4]triazolo[3,4-a]isoquinolin-3-yl)-3-(1,3-diphenyl-1H-pyrazol-4-yl)prop-2-en-1-one]	5.26 ± 0.49	451.08 ± 0.11	0.059 ± 0.16	4.07 ± 0.38	4.69 ± 0.55	186 to 188	3.22 ± 1.37	5.4 ± 0.73	–
COc1cc2c(cc1OC)C1N(CC2)C(C(=O)C=Cc2cn(-c3ccccc3)nc2-c2ccccc2)=NN1c1ccc(Cl)cc1 (centres unmarked) [Compound 3d, 1-(1-(4-Chlorophenyl)-8,9-dimethoxy-1,5,6,10b-tetrahydro-[1,2,4]triazolo[3,4-a]isoquinolin-3-yl)-3-(1,3-diphenyl-1H-pyrazol-4-yl)prop-2-en-1-one]	4.68 ± 0.41	468.92 ± 0.17	0.066	13.5 ± 0.29	15 ± 0.58	216 to 218	5.05 ± 1.43	14.1 ± 0.66	–
COc1cc2c(cc1OC)C1N(CC2)C(C(=O)C=Cc2cn(-c3ccccc3)nc2-c2ccccc2)=NN1c1ccc(Br)cc1 (centres unmarked) [Compound 3e, 1-(1-(4-Bromophenyl)-8,9-dimethoxy-1,5,6,10b-tetrahydro-[1,2,4]triazolo[3,4-a]isoquinolin-3-yl)-3-(1,3-diphenyl-1H-pyrazol-4-yl)prop-2-en-1-one]	2.3 ± 0.11	1731.9 ± 0.21	–	4.21 ± 0.41	4.2 ± 0.38	220 to 222	2.72 ± 1.36	14.8 ± 0.31	Apoptosis Late (%) (A549 lung cancer cells [1]): 4.5%; Apoptosis Early (%) (A549 lung cancer cells [1]): 4.26%; Apoptosis Total (%) (A549 lung cancer cells [1]): 8.76%; Necrosis (%) (A549 lung cancer cells [1]): 7.26%; CDK4 gene expression fold change (CDK4): 0.44 fold; Caspase 9 gene expression fold change (Caspase 9): 6.55 fold; Bax gene expression (in words) (Bax): significantly upregulated; MMP1 gene expression fold change (MMP1): 0.37 fold; Caspase 3 gene expression fold change (Caspase 3): 9.29 fold; Caspase 8 gene expression fold change (Caspase 8): 4.23 fold; p53 gene expression (in words) (P53): significantly upregulated; Bcl-2 gene expression fold change (Bcl2): 0.18 fold; Fold more efficient in inhibiting EGFR than lapatinib (total EGFR): 1.42 fold; SI^b = EGFR^WT IC50/ EGFR^T790M IC50 (EGFR^T790M): 2.63; SI^a = EGFR^WT IC50/ EGFR^L858R IC50 (EGFR^L858R): 15.56; DNA content Pre-G1% (A549 lung cancer cells [2]): 16.02%; DNA content G2/M% (A549 lung cancer cells [2]): 22.74%; DNA content S% (A549 lung cancer cells [2]): 35.93%; DNA content G0–G1% (A549 lung cancer cells [2]): 41.33%
COc1cc2c(cc1OC)C1N(CC2)C(C(=O)C=Cc2cn(-c3ccccc3)nc2-c2ccccc2)=NN1c1ccc([N+](=O)[O-])cc1 (centres unmarked) [Compound 3f, 1-(8,9-Dimethoxy-1-(4-nitrophenyl)-1,5,6,10b-tetrahydro-[1,2,4]triazolo[3,4-a]isoquinolin-3-yl)-3-(1,3-diphenyl-1H-pyrazol-4-yl)prop-2-en-1-one]	1.15 ± 0.38	1578 ± 0.23	0.023	5.53 ± 0.33	2.41 ± 0.41	224 to 226	22.16 ± 0.18	4.61 ± 0.28	Apoptosis Late (%) (A549 lung cancer cells [1]): 15.24%; Apoptosis Early (%) (A549 lung cancer cells [1]): 3.08%; Apoptosis Total (%) (A549 lung cancer cells [1]): 18.32%; Necrosis (%) (A549 lung cancer cells [1]): 9.89%; CDK4 gene expression fold change (CDK4): 0.29 fold; Caspase 9 gene expression fold change (Caspase 9): 9.32 fold; Bax gene expression (in words) (Bax): significantly upregulated; MMP1 gene expression fold change (MMP1): 0.31 fold; Caspase 3 gene expression fold change (Caspase 3): 11.26 fold; Caspase 8 gene expression fold change (Caspase 8): 3.48 fold; p53 gene expression (in words) (P53): significantly upregulated; Bcl-2 gene expression fold change (Bcl2): 0.13 fold; Fold more efficient in inhibiting EGFR than lapatinib (total EGFR): 1.91 fold; SI^b = EGFR^WT IC50/ EGFR^T790M IC50 (EGFR^T790M): 4.52; SI^a = EGFR^WT IC50/ EGFR^L858R IC50 (EGFR^L858R): 25.95; DNA content Pre-G1% (A549 lung cancer cells [2]): 28.21%; DNA content G2/M% (A549 lung cancer cells [2]): 39.84%; DNA content S% (A549 lung cancer cells [2]): 26.42%; DNA content G0–G1% (A549 lung cancer cells [2]): 33.74%
O=c1[nH]cc(F)c(=O)[nH]1 [Compound 5-FU, 5-fluorouracil, reference compound]	66.24 ± 0.36	210.69 ± 0.19	–	160.3 ± 0.47	203.6 ± 0.48	–	178.2 ± 0.34	171.5 ± 0.23	–
C#Cc1cccc(Nc2ncnc3cc(OCCOC)c(OCCOC)cc23)c1 [Erlotinib, reference compound]	7.32 ± 0.52	1431.6 ± 0.22	–	–	9.5 ± 0.46	–	14.4 ± 0.78	–	–
CS(=O)(=O)CCNCc1ccc(-c2ccc3ncnc(Nc4ccc(OCc5cccc(F)c5)c(Cl)c4)c3c2)o1 [Lapatinib, reference compound]	9.66 ± 0.44	1239.4 ± 0.18	–	5.02 ± 1.1	8.23 ± 0.33	–	13.7 ± 0.89	5.92 ± 0.45	–
